In article PMC10876879, “Sustained silencing peanut allergy by xanthopurpurin is associated with suppression of peripheral and bone marrow IgE-producing B cell” (Frontiers in Immunology, 2024):
Converted amounts (≈) assume the structure as drawn.

Key:
[1] = test system: IgE production by U266 cells; test: IgE production by human myeloma U266 cells, IgE ELISA of supernatants; type: cell-based
Experimental: The human myeloma cell line (U266), purchased from ATCC (American Type Culture Collection; Rockville, MD), has been used to test different herb extracts and purified compounds for their IgE inhibitory effects ([31]). 2×10^5 cells/mL of cells were cultured at 37°C under 5% CO2 in complete media containing RPMI 1640 medium supplemented, 10% FBS, 1 mM sodium pyruvate, 1×10^-5 M β-ME and 0.5% penicillin-streptomycin. XPP at 0, 2.5, 5, 10, 20 and 40 μg/mL were added at day 0. After 6 days, supernatants were harvested and IgE levels were measured by using an ELISA Kit (Mabtech Inc, OH). Briefly, samples and standards were added into prewashed 96-well plate coated with capture monoclonal antibodies (mAbs). After 2-hour incubation at room temperature, plate was washed 5 times and incubated with detection mAb for 1 hour. The plate was then washed for 5 times and incubated with streptavidin-HRP for 1hour at room temperature. The plate was then washed and developed with TMB substrate for 15 min. The optical density was measured using ELISA reader at 450nm. IgE concentrations were calculated based on the standard curve.
S Figure 2. The IgE inhibitory effect of five fractions from R.cordifolia. U266 cells (2 × 10^5 cells/mL) were co-incubated with each fraction at the concentration of 10 μg/mL for 6 days. The supernatants were harvested and IgE levels were measured by ELISA. The inhibition percentage was calculated using the equation “% inhibition = (1- IgE level each fr / IgE level non-treated ) x 100%”.

[2] = test system: IgG production by ARH-77 cells; test: IgG production by ARH-77 cells, IgG ELISA; type: cell-based, human; conditions: XPP 2.5, 5, 10, 20, and 40 μg/mL
Experimental: ARH-77, a human IgG-producing myeloma cell line, was purchased from ATCC (American Type Culture Collection; Manassas, VA). The culture media contains RPMI 1640 medium supplemented, 10% FBS, 1 mM sodium pyruvate, 1×10^-5 M β-ME and 0.5% penicillin-streptomycin. Cells were cultured at 37°C under 5% CO2. […] After 3 days, supernatants were harvested and IgG levels were determined using an ELISA Kit (Mabtech Inc, OH).

ARH-77 cells = test: Cell viability of ARH-77 cells by trypan blue exclusion; type: cell-based, human; conditions: XPP 2.5-40 μg/mL
Experimental: Cell viability was evaluated using the trypan blue exclusion assay. Briefly, 10µL of ARH-77 cells at each testing condition was mixed with 10 µL of trypan blue dye. The mixture was then loaded into a hemocytometer and the viable cells were counted under a microscope. The percentage of viable cells was calculated as follows: Viable cells (%) = (total number of viable cells) / (total number of cells) × 100.

U266 cells = test: RNA sequencing of XPP-treated U266 cells; type: cell-based, human; conditions: XPP 10 μg/mL, 3 days
Experimental: U266 cells were treated with XPP at 10 μg/mL. After 3 days of treatment, cells were collected and total RNA was isolated using Qiagen RNeasy MiniKits following the manufacturer’s instructions. The purity of total RNA was analyzed and the RNA-Seq was performed with an Illumina HiSeq2500 instrument at the Genomics Core facility at Icahn School of Medicine at Mount Sinai. Counts were converted to Log2 counts per million and normalized. A log2 fold change was calculated and the gene list with values ≥ 2 or ≤ -2 were uploaded to DAVID bioinformatic system for functional analysis.

## O=C1c2ccccc2C(=O)c2c(O)cc(O)cc21 [XPP, xanthopurpurin]
[1]; Homo sapiens, U-266, 144 h, 6 days culture, IgE ELISA
  IC50: 9 µg/mL (≈ 37.5 µM)
[1]; U266 cells, 6 days
  XPP concentration at which complete inhibition of IgE production was observed: 40 µg/mL
  XPP concentration at which inhibition of IgE was first observed: 2.5 µg/mL
[1]; U266 cells, 6 days, p < 0.01
  XPP concentration reaching statistically significant inhibition of IgE: 10 µg/mL
[1]; XPP 2.5-40 µg/mL, 6 days
  IgE production by U266 cells: inhibited the IgE production by U266 cells in a dose-dependent manner
[2]
  IgG production by ARH-77 cells: didn’t show significant inhibition
ARH-77 cells
  Toxicity / cell viability of ARH-77 cells: No toxicity was observed
U266 cells
  Number of genes downregulated (RNA-Seq): 5094 genes
  Number of genes upregulated (RNA-Seq): 4009 genes
